{"source": "patent US20240018146A1", "about": "“COMPOSITIONS AND METHODS OF USING THE SAME FOR TREATMENT OF NEURODEGENERATIVE AND MITOCHONDRIAL DISEASE” (MITOKININ, INC., priority 2020, published 2024)", "key": {"HeLa MKYP cells [1]": {"system": "HeLa MKYP cells", "test": "Human mitophagy assay (HeLa mKeima assay, FACS)", "type": "cell-based", "conditions": "for EC50: Homo sapiens, HeLa", "procedure,_shortened": "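Mitophagy, read by FACS as the share of cells showing the lysosomal mtKeima emission shift, followed 6 h of 1 uM FCCP/oligomycin stimulation. Before that, HeLa MKYP cells spent 16 h with compound over a concentration range.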"}, "HeLa MKYP cells [2]": {"system": "HeLa MKYP cells", "test": "Cell death measured by DAPI staining, with 1 μM FCCP/oligomycin or no toxin (no FO)", "type": "cell-based", "conditions": "for E105 death at 8.3 μM (no FO): 8.3 μM compound; for E104 death at 25 μM (no FO) / Max cell death at 25 μM compound, 1 uM FO (%) / Cell death at 25 μM (no FO) (%): 25 μM compound", "procedure,_shortened": "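Cell death was read by DAPI staining after 6–6.5 h compound exposure in HeLa MKYP cells, either with 1 μM FCCP/oligomycin or without toxin. H2O2 served as the cell-death control.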"}, "[3]": {"test": "Inspection of crystallization and round cells", "type": "physicochemical", "parameters": "key: 1=yes crystals; 0=no crystals", "protocol": "5. Inspection of Crystallization and Round Cells\nBriefly, the Hela MKYP (Mito-Keima/YFP-Parkin) cells were seeded at 10K cells/well. EP/MTK compounds were added at seeding (cells were still in suspension). The cells were incubated with the EP/MTK compounds for 16 hours, then 1 μM FCCP/oligomycin was added for 6 hours. Prior to harvesting, cells were scored by eye under 20× magnification for the presence or absence of crystalline or aggregated compound, or round cells."}, "pS129 α-syn": {"system": "pS129 α-syn", "test": "Preformed fibril (PFF) model in primary neuron culture, pS129 α-syn", "type": "cell-based", "conditions": "FIG. 8A-C", "protocol": "4. Preformed Fibril Model\nMouse and human alpha-synuclein monomers have been sourced commercially, then pre-formed fibrils have been generated as per the detailed protocol provided by the MJFF. For in vitro experiments primary hippocampal neurons isolated from P0 pups were grown for 7 days after which PFFs at 5 ug/ml were introduced Pre-formed fibrils will be introduced via stereotactic injection into the striatum of wt (C57BL/6J, Jax #000664) and transgenic A53T mice (B6;C3-Tg(Prnp-SNCA*A53T)83Vle/J, Jax #004479). Cohorts of drug-treated (oral gavage) and untreated animals will then be allowed to age for up to 6 months, at which point they will be sacrificed and perfused. Brains will be removed and fixed, then sectioned for analysis. We anticipate that untreated A53T animals will show significant spreading of aggregated alpha-synuclein pathology and pS129 staining, as well as some possible neurodegeneration; wt animals are also expected to show pS129 synuclein staining and synuclein aggregation, albeit less than that seen in the A53T background."}, "Parkin": {"system": "Parkin", "test": "Parkin recruitment to mitochondria (HeLa cells expressing YFP-tagged Parkin, longitudinal imaging)", "type": "cell-based, human", "conditions": "FCCP and Oligomycin, cells with Parkin recruited at 60 minutes, FIG. 29", "protocol": "HeLa cells expressing a YFP-tagged Parkin were treated with […] of FCCP and Oligomycin followed by the specified dose of compound, then analyzed by longitudinal imaging. Percentage of cells with Parkin recruited to mitochondria at 60 minutes is shown."}, "[4]": {"test": "Mitotoxicity / Mitotox safety margin (therapeutic window)", "type": "cell-based"}, "Kinetic solubility": {"test": "Kinetic solubility", "type": "physicochemical"}, "[5]": {"conditions": "mitophagy, 1 μM FCCP/oligomycin, read-out: E100 EC50"}, "[6]": {"conditions": "mitophagy, 1 μM FCCP/oligomycin"}, "[7]": {"conditions": "25.0 μM compound, HeLa MKYP culture, 20× magnification"}, "[8]": {"conditions": "HeLa mKeima assay, read-out: Mitophagy EC50 (HeLa mKeima assay)"}}, "note": "Entries after “also recorded” stand apart in the source; their conditions may differ. Where two headings read alike, the source gives them in different places."}
{"compound": "FC(F)(F)c1cc2c(NC3CCCc4ccccc43)ncnc2[nH]1", "note": "(single isomer, unassigned) [EP-0035985]", "values": [{"measurement": "E102 max mitophagy, fold over DMSO", "setting": "HeLa MKYP cells [1]; 1 μM FCCP/oligomycin", "result": 4.43, "unit": "fold over DMSO"}, {"measurement": "percentage of cells undergoing mitophagy", "setting": "HeLa MKYP cells [1]; HeLa cells expressing mtKeima, FCCP and Oligomycin, FACS, FIG. 28", "result": "induce mitophagy in a dose dependent manner; also recorded: dose responsive increase in the percentage of cells undergoing mitophagy"}, {"measurement": "EC50", "setting": "HeLa MKYP cells [1]; [5]", "result": 0.33, "unit": "µM"}, {"measurement": "E101 lowest effective dose", "setting": "HeLa MKYP cells [1]; [6]", "result": 0.31, "unit": "µM"}, {"measurement": "E105 death at 8.3 μM (no FO)", "setting": "HeLa MKYP cells [2]; no FO", "result": 2.54}, {"measurement": "E104 death at 25 μM (no FO)", "setting": "HeLa MKYP cells [2]; no FO", "result": 3.01}, {"measurement": "E103 max death with 1 μM FO", "setting": "HeLa MKYP cells [2]; with 1 μM FO", "result": 8.14}, {"measurement": "visual inspection of crystallization", "setting": "[3]; 0.1 μM compound", "result": 0}, {"measurement": "visual inspection of crystallization", "setting": "[3]; 0.3 μM compound", "result": 0}, {"measurement": "visual inspection of crystallization", "setting": "[3]; 0.9 μM compound", "result": 0}, {"measurement": "visual inspection of crystallization", "setting": "[3]; 2.8 μM compound", "result": 0}, {"measurement": "visual inspection of crystallization", "setting": "[3]; 8.3 μM compound", "result": 0}, {"measurement": "visual inspection of crystallization", "setting": "[3]; [7]", "result": 0}, {"measurement": "pathological α-synuclein levels in primary neurons", "setting": "pS129 α-syn", "result": "reduce pathological α-synuclein levels"}, {"measurement": "Parkin recruitment to mitochondria", "setting": "Parkin", "result": "accelerate recruitment of Parkin to mitochondria; also recorded: dose responsive increase in the rate of Parkin recruitment to mitochondria"}]}
{"compound": "FC(F)(F)c1cc2c(N[C@H]3c4ccccc4CC[C@@H]3N3CCOCC3)ncnc2[nH]1", "note": "(single isomer, unassigned) [EP-0038098]", "values": [{"measurement": "E102 max mitophagy, fold over DMSO", "setting": "HeLa MKYP cells [1]; 1 μM FCCP/oligomycin", "result": 9.78, "unit": "fold over DMSO"}, {"measurement": "EC50", "setting": "HeLa MKYP cells [1]; [8]", "result": 0.22, "unit": "µM"}, {"measurement": "EC50", "setting": "HeLa MKYP cells [1]; [5]", "result": 0.22, "unit": "µM"}, {"measurement": "EC50", "setting": "HeLa MKYP cells [1]; text statement referring to Tables 2A and 2B, FIG. 1A-F, read-out: EC50", "result": "< 0.3", "unit": "µM"}, {"measurement": "E101 lowest effective dose", "setting": "HeLa MKYP cells [1]; [6]", "result": 0.10, "unit": "µM"}, {"measurement": "E105 death at 8.3 μM (no FO)", "setting": "HeLa MKYP cells [2]; no FO", "result": 2.59}, {"measurement": "Max cell death at 25 μM compound, 1 uM FO (%)", "setting": "HeLa MKYP cells [2]", "result": 24, "unit": "%"}, {"measurement": "Cell death at 25 μM (no FO) (%)", "setting": "HeLa MKYP cells [2]; no FO", "result": 5.29, "unit": "%"}, {"measurement": "E104 death at 25 μM (no FO)", "setting": "HeLa MKYP cells [2]; no FO", "result": 5.29}, {"measurement": "toxicity", "setting": "HeLa MKYP cells [2]; text statement referring to Tables 2A and 2B, FIG. 1A-F", "result": "less than 10%"}, {"measurement": "E103 max death with 1 μM FO", "setting": "HeLa MKYP cells [2]; with 1 μM FO", "result": 24.02}, {"measurement": "Mitotox safety margin (Therapeutic window)", "setting": "[4]", "result": "++++ (++++ = 30<)"}, {"measurement": "solubility kinetic", "setting": "Kinetic solubility", "result": 14.1, "unit": "µM"}, {"measurement": "pathological α-synuclein levels in primary neurons", "setting": "pS129 α-syn", "result": "reduce pathological α-synuclein levels"}]}
{"compound": "FC(F)(F)c1cc2c(N[C@H]3c4ccccc4CC[C@@H]3N3CC4(CCOCC4)C3)ncnc2[nH]1", "note": "(single isomer, unassigned) [EP-0038463]", "values": [{"measurement": "E102 max mitophagy, fold over DMSO", "setting": "HeLa MKYP cells [1]; 1 μM FCCP/oligomycin", "result": 3.95, "unit": "fold over DMSO"}, {"measurement": "EC50", "setting": "HeLa MKYP cells [1]; [8]", "result": 2.59, "unit": "µM"}, {"measurement": "EC50", "setting": "HeLa MKYP cells [1]; [5]", "result": 2.59, "unit": "µM"}, {"measurement": "EC50", "setting": "HeLa MKYP cells [1]; read-out: Mitophagy induction EC50", "result": 2.59, "unit": "µM"}, {"measurement": "E101 lowest effective dose", "setting": "HeLa MKYP cells [1]; [6]", "result": 2.78, "unit": "µM"}, {"measurement": "E105 death at 8.3 μM (no FO)", "setting": "HeLa MKYP cells [2]; no FO", "result": 4.21}, {"measurement": "Max cell death at 25 μM compound, 1 uM FO (%)", "setting": "HeLa MKYP cells [2]", "result": 87.805, "unit": "%"}, {"measurement": "Cell death at 25 μM (no FO) (%)", "setting": "HeLa MKYP cells [2]; no FO", "result": 59.8, "unit": "%"}, {"measurement": "E104 death at 25 μM (no FO)", "setting": "HeLa MKYP cells [2]; no FO", "result": 59.77}, {"measurement": "Highest safe dose (cytotoxicity; no FO; safe means DAPI+ <20%)", "setting": "HeLa MKYP cells [2]; no FO, safe means DAPI+ <20%", "result": 8.3, "unit": "µM"}, {"measurement": "E103 max death with 1 μM FO", "setting": "HeLa MKYP cells [2]; with 1 μM FO", "result": 87.81}, {"measurement": "Max % death with 1 μM FO", "setting": "HeLa MKYP cells [2]; with 1 μM FO", "result": 87.8, "unit": "%"}, {"measurement": "Mitotox safety margin (Therapeutic window)", "setting": "[4]", "result": "+ (+ = <10)"}, {"measurement": "mitotoxicity", "setting": "[4]; FIG. 5-7", "result": "low mitotoxicity"}, {"measurement": "Mito-Safety Index (highest safe dose/EC50)", "setting": "[4]; highest safe dose/EC50", "result": 3.20}, {"measurement": "Highest safe dose (μM) (mitotox or cytotox)", "setting": "[4]; mitotox or cytotox", "result": 8.3, "unit": "µM"}, {"measurement": "solubility kinetic", "setting": "Kinetic solubility", "result": 153, "unit": "µM"}, {"measurement": "visual inspection of crystallization", "setting": "[3]; 0.1 μM compound", "result": 0}, {"measurement": "visual inspection of crystallization", "setting": "[3]; 0.3 μM compound", "result": 0}, {"measurement": "visual inspection of crystallization", "setting": "[3]; 0.9 μM compound", "result": 0}, {"measurement": "visual inspection of crystallization", "setting": "[3]; 2.8 μM compound", "result": 0}, {"measurement": "visual inspection of crystallization", "setting": "[3]; 8.3 μM compound", "result": 0}, {"measurement": "visual inspection of crystallization", "setting": "[3]; [7]", "result": 0}]}
